“Also recorded” adds a separate entry of the source.
Tests used:
primary cortical neurons = experiment: Rescue of oAβ42-induced decrease in PIP2 levels in primary cortical neuronal cultures; format: cell-based, mice; details: 750 nM FIPI pretreatment for 1 hour, then 200 nM oAβ42 for 2 hours; n=3
[1] = system: N2a cells expressing swAPP; experiment: Aβ secretion by N2a cells expressing swAPP (ELISA); format: cell-based
Protocol: N2a cells expressing swAPP after reaching confluence, were replaced with new media and treated either with vehicle (black) or FIPI (gray) for 6 hours. The media was collected and both Aβ40 (A) and Aβ42 (B) were measured by ELISA. n=6.

PLD1 = molecular target: T1, PLD1 (Homo sapiens, UniProt Q13393); details: PLD1 versus PLD2; cited from earlier work
T1 sequence (Q13393 1-1074): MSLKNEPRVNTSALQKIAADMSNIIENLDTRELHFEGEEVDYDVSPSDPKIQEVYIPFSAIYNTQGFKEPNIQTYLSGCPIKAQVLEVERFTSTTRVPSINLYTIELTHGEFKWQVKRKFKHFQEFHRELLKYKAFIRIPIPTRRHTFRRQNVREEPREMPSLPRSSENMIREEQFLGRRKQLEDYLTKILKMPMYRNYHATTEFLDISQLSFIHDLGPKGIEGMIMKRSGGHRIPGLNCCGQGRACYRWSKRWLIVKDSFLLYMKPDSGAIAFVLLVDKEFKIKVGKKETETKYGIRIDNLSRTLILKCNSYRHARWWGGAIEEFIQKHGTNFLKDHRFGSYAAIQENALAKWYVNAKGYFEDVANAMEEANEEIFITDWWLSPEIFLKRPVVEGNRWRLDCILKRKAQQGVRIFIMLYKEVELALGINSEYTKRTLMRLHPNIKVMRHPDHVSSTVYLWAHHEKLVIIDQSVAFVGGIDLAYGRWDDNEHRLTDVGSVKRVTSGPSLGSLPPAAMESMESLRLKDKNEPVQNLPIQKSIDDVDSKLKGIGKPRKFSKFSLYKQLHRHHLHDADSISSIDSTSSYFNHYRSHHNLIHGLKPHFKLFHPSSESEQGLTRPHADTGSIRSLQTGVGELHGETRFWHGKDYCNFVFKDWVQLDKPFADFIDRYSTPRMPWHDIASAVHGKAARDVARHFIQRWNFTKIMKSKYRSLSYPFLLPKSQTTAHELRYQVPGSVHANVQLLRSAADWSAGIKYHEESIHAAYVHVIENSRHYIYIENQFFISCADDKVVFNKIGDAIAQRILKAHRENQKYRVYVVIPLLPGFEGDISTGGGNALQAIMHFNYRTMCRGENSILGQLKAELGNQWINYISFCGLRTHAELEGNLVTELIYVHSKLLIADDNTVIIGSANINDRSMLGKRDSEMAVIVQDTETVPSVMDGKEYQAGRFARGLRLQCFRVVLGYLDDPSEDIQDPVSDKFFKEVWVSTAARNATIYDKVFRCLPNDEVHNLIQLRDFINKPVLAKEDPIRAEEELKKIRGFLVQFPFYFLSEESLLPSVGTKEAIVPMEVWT

293-PLD2 = details: cited from earlier work
Calu-1 = details: cited from earlier work

Row | SMILES | PIP2 levels after oAβ42 (primary cortical neurons) | secreted Aβ42 ([1]; N2A cells expressing swAPP treated with FIPI, 6 hours, ELISA of media) | production of Aβ (Aβ40 and Aβ42) ([1]; N2a swAPP cells, FIPI versus vehicle for 6 hours, ELISA, n=6) | PLD isoform selectivity (PLD1) | IC50 (293-PLD2) [nM] | IC50 (Calu-1) [nM]
1 | O=C(NCCN1CCC(n2c(=O)[nH]c3ccccc32)CC1)c1cc2cc(F)ccc2[nH]1 [FIPI, 5-Fluoro-2-indolyl des-chlorohalopemide] | partially rescues oAβ42 induced decrease in PIP2 levels; also recorded: partially rescue PIP2 deficiency | secrete lower amounts of Aβ42 | decrease production of Aβ | blocks both PLD1 and PLD2 | – | –
2 | O=C(NCCN1CCC2(CC1)C(=O)NCN2c1ccccc1)c1cnc2ccccc2c1 [compound 9b, N-(2-(4-oxo-1-phenyl-1,3,8-triazaspiro[4,5]decan-8-yl)ethyl)quinoline-3-carboxamide] | – | – | – | – | 90 | 1900
3 | C[C@@H](CN1CCC(n2c(=O)[nH]c3cc(Br)ccc32)CC1)NC(=O)[C@@H]1C[C@H]1c1ccccc1 [compound 13r, (1R,2R)—N—((S)-1-(4-(5-bromo-2-oxo-2,3-dihydro-1H-benzo[d]imidazol-1-yl)piperidin-1-yl)propan-2-yl)-2-phenylcyclopropanecarboxamide] | – | – | – | – | – | 3.7

Source: patent publication US9267122B2, “Modulation of phospholipase D for the treatment of neurodegenerative disorders” (THE TRUSTEES OF COLUMBIA UNIVERSITY IN THE CITY OF NEW YORK, priority 2009, dated 2016)
